Measured values published in patent US20100267774A1, “P38 MAP KINASE INHIBITORS” (CHROMA THERAPEUTICS LTD., priority 2007, published 2010).

target: T1, p38 MAP Kinase a (Homo sapiens, UniProt Q16539); assay: p38 MAP Kinase activity, radiometric filter-binding assay (Upstate); type: biochemical; conditions: IC50 range; read-out: Inhibitor activity versus p38 MAPKa
T1 construct: purchased Upstate (Dundee UK)
Procedure: The ability of compounds to inhibit p38 MAP a Kinase activity was measured in an assay performed by Upstate (Dundee UK). In a final reaction volume of 25 μL, p38 MAP Kinase a (5-10 mU) is incubated with 25 mM Tris pH 7.5, 0.002 mMEGTA, 0.33 mg/mL myelin basic protein, 10 mM MgAcetate and [g-33P-ATP] (specific activity approx. 500 cpm/pmol, concentration as required). The reaction is initiated by the addition of the MgATP mix. After incubation for 40 minutes at room temperature, the reaction is stopped by the addition of 5 μL of a 3% phosphoric acid solution. 10 μL of the reaction is then spotted onto a P30 filtermat and washed three times for 5 minutes in 75 mM phosphoric acid and once in methanol prior to drying and scintillation counting.
Duplicate data points are generated from a 1/3 log dilution series of a stock solution in DMSO. Nine dilutions steps are made from a top concentration of 10 μM, and a ‘no compound’ blank is included. The standard radiometric filter-binding assay is performed at an ATP concentration at, or close to, the Km. Data from scintillation counts are collected and subjected to free-fit analysis by Prism software. From the curve generated, the concentration giving 50% inhibition is determined and reported.

T1 sequence (Q16539 whole entry): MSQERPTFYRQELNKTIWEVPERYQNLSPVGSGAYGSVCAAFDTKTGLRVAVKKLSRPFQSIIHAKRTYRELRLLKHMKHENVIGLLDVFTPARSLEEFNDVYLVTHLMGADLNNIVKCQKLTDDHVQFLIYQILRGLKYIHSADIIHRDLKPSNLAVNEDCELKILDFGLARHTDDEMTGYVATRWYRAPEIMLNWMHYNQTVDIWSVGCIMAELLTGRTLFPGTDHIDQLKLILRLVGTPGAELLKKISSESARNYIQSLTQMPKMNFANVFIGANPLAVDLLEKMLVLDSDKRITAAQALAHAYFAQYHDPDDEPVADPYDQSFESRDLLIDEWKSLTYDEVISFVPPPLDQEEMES

Row | Structure (SMILES) | IC50
1 | Nc1c(C(=O)c2ccc(F)cc2F)ccc(=O)n1-c1ccc(CCN[C@H](C(=O)OC2CCCC2)C2CCCCC2)cc1 [Example 3, Cyclopentyl (2S)-{[2-(4-{6-amino-5-[(2,4-difluorophenyl)carbonyl]-2-oxopyridin-1(2H)-yl}phenyl)ethyl]amino}(cyclohexyl)ethanoate] | 100 to 1000 nM
2 | CC(C)(C)OC[C@H](NCCc1cc(F)c(-n2c(N)c(C(=O)c3ccc(F)cc3)ccc2=O)c(F)c1)C(=O)OC(C)(C)C [Example 32, tert-butyl N-(2-{4-[6-amino-5-(4-fluorobenzoyl)-2-oxopyridin-1(2H)-yl]-3,5-difluorophenyl}ethyl)-O-tert-butyl-L-serinate] | 100 to 1000 nM
3 | Nc1c(C(=O)c2ccc(F)cc2F)ccc(=O)n1-c1ccc(CCN[C@H](C(=O)O)c2ccccc2)cc1 [Example 51, (2S)-[(2-{4-[6-amino-5-(2,4-difluorobenzoyl)-2-oxopyridin-1(2H)yl]-phenyl}ethyl)amino](phenyl)acetic acid] | 100 to 1000 nM
4 | Nc1c(C(=O)c2ccc(F)cc2F)ccc(=O)n1-c1ccc(CCN[C@H](C(=O)O)C2CCCCC2)cc1 [Example 52, (2S)-{[2-(4-{6-amino-5-[(2,4-difluorophenyl)carbonyl]-2-oxopyridin-1(2H)-yl}phenyl)ethyl]amino}(cyclohexyl)ethanoic acid] | 100 to 1000 nM
5 | CC(C)[C@H](NCCc1ccc(-n2c(N)c(C(=O)c3ccc(F)cc3F)ccc2=O)cc1)C(=O)O [Example 53, N-[2-(4-{6-amino-5-[(2,4-difluorophenyl)carbonyl]-2-oxopyridin-1(2H)-yl}phenyl)ethyl]-L-valine] | < 100 nM
6 | Nc1c(C(=O)c2ccc(F)cc2F)ccc(=O)n1-c1ccc(CCN[C@@H](CO)C(=O)O)cc1 [Example 57, N-[2-(4-{6-amino-5-[(2,4-difluorophenyl)carbonyl]-2-oxopyridin-1(2H)-yl}phenyl)ethyl]-L-serine] | < 100 nM
7 | C[C@@H](O)[C@H](NCCc1ccc(-n2c(N)c(C(=O)c3ccc(F)cc3F)ccc2=O)cc1)C(=O)O [Example 58, N-[2-(4-{6-amino-5-[(2,4-difluorophenyl)carbonyl]-2-oxopyridin-1(2H)-yl}phenyl)ethyl]-L-threonine] | < 100 nM
8 | C[C@H](NCCc1ccc(-n2c(N)c(C(=O)c3ccc(F)cc3F)ccc2=O)cc1)C(=O)O [Example 60, N-[2-(4-{6-amino-5-[(2,4-difluorophenyl)carbonyl]-2-oxopyridin-1(2H)-yl}phenyl)ethyl]-L-alanine] | < 100 nM
9 | Nc1c(C(=O)c2ccc(F)cc2F)ccc(=O)n1-c1ccc(CCN[C@@H](Cc2ccccc2)C(=O)O)cc1 [Example 61, N-[2-(4-{6-amino-5-[(2,4-difluorophenyl)carbonyl]-2-oxopyridin-1(2H)-yl}phenyl)ethyl]-L-phenylalanine] | < 100 nM
10 | Nc1c(C(=O)c2ccc(F)cc2)ccc(=O)n1-c1c(F)cc(CCN[C@H](C(=O)O)c2ccccc2)cc1F [Example 62, (2S)-[(2-{4-[6-amino-5-(4-fluorobenzoyl)-2-oxopyridin-1(2H)-yl]-3,5-difluorophenyl}ethyl)amino](phenyl)acetic acid] | < 100 nM
11 | CC(C)C[C@H](NCCc1cc(F)c(-n2c(N)c(C(=O)c3ccc(F)cc3)ccc2=O)c(F)c1)C(=O)O [Example 63, N-(2-{4-[6-amino-5-(4-fluorobenzoyl)-2-oxopyridin-1(2H)-yl]-3,5-difluorophenyl}ethyl)-L-leucine] | < 100 nM
12 | CC(C)C[C@@H](NCCc1cc(F)c(-n2c(N)c(C(=O)c3ccc(F)cc3)ccc2=O)c(F)c1)C(=O)O [Example 64, N-(2-{4-[6-amino-5-(4-fluorobenzoyl)-2-oxopyridin-1(2H)-yl]-3,5-difluorophenyl}ethyl)-D-leucine] | < 100 nM
13 | CC(C)(C)OC[C@H](NCCc1cc(F)c(-n2c(N)c(C(=O)c3ccc(F)cc3)ccc2=O)c(F)c1)C(=O)O [Example 65, N-(2-{4-[6-amino-5-(4-fluorobenzoyl)-2-oxopyridin-1(2H)-yl]-3,5-difluorophenyl}ethyl)-O-tert-butyl-L-serine] | < 100 nM
14 | Nc1c(C(=O)c2ccc(F)cc2F)ccc(=O)n1-c1c(F)cc(CCN[C@H](C(=O)O)c2ccccc2)cc1F [Example 66, (2S)-[(2-{4-[6-amino-5-(2,4-difluorobenzoyl)-2-oxopyridin-1(2H)-yl]-3,5-difluorophenyl}ethyl)amino](phenyl)acetic acid] | < 100 nM

Continued, values first:

Row | IC50 | Structure (SMILES)
15 | 100 to 1000 nM | CC(C)(C)OC(=O)[C@@H](NCCc1ccc(-n2c(N)c(C(=O)c3ccc(F)cc3F)ccc2=O)cc1)c1ccccc1 [Example 2, tert-butyl (2S)-{[2-(4-{6-amino-5-[(2,4-difluorophenyl)carbonyl]-2-oxopyridin-1(2H)-yl}phenyl)ethyl]amino}(phenyl)ethanoate]
16 | > 1000 nM | CC(C)(C)OC(=O)[C@@H](NCCc1ccc(-n2c(N)c(C(=O)c3ccc(F)cc3F)ccc2=O)cc1)C1CCCCC1 [Example 4, tert-butyl (2S)-{[2-(4-{6-amino-5-[(2,4-difluorophenyl)carbonyl]-2-oxopyridin-1(2H)-yl}phenyl)ethyl]amino}(cyclohexyl)ethanoate]
17 | 100 to 1000 nM | CC(C)C[C@@H](NCCc1ccc(-n2c(N)c(C(=O)c3ccc(F)cc3F)ccc2=O)cc1)C(=O)OC(C)(C)C [Example 10, tert-butyl N-[2-(4-{6-amino-5-[(2,4-difluorophenyl)carbonyl]-2-oxopyridin-1(2H)-yl}phenyl)ethyl]-D-leucinate]
18 | > 1000 nM | CC(C)C[C@H](NCCc1ccc(-n2c(N)c(C(=O)c3ccc(F)cc3F)ccc2=O)cc1)C(=O)O[C@H]1C[C@@H](C)CC[C@@H]1C(C)C [Example 14, (1S,2R,5S)-2-Isopropyl-5-methylcyclohexyl N-(2-{4-[6-amino-5-(2,4-difluorobenzoyl)-2-oxopyridin-1(2H)-yl]phenyl}ethyl)-L-leucinate]
19 | 100 to 1000 nM | C[C@@H](OC(C)(C)C)[C@H](NCCc1ccc(-n2c(N)c(C(=O)c3ccc(F)cc3F)ccc2=O)cc1)C(=O)OC(C)(C)C [Example 16, tert-butyl N-[2-(4-{6-amino-5-[(2,4-difluorophenyl)carbonyl]-2-oxopyridin-1(2H)-yl}phenyl)ethyl]-O-tert-butyl-L-threoninate]
20 | 100 to 1000 nM | CC[C@H](C)[C@H](NCCc1ccc(-n2c(N)c(C(=O)c3ccc(F)cc3F)ccc2=O)cc1)C(=O)OC(C)(C)C [Example 19, tert-butyl N-[2-(4-{6-amino-5-[(2,4-difluorophenyl)carbonyl]-2-oxopyridin-1(2H)-yl}phenyl)ethyl]-L-isoleucinate]
21 | < 100 nM | C[C@H](NCCc1ccc(-n2c(N)c(C(=O)c3ccc(F)cc3F)ccc2=O)cc1)C(=O)OC(C)(C)C [Example 21, tert-butyl N-[2-(4-{6-amino-5-[(2,4-difluorophenyl)carbonyl]-2-oxopyridin-1(2H)-yl}phenyl)ethyl]-L-alaninate]
22 | 100 to 1000 nM | CC(C)(C)OC(=O)[C@H](Cc1ccccc1)NCCc1ccc(-n2c(N)c(C(=O)c3ccc(F)cc3F)ccc2=O)cc1 [Example 23, tert-butyl N-[2-(4-{6-amino-5-[(2,4-difluorophenyl)carbonyl]-2-oxopyridin-1(2H)-yl}phenyl)ethyl]-L-phenylalaninate]
23 | 100 to 1000 nM | CC(C)C[C@H](NCCc1ccc(-n2c(N)c(C(=O)c3ccc(F)cc3F)ccc2=O)s1)C(=O)OC(C)(C)C [Example 50, tbutyl N-(2-{5-[6-amino-5-(2,4-difluorobenzoyl)-2-oxopyridin-1(2H)-yl]-2-thienyl}ethyl)-L-leucinate]
24 | 100 to 1000 nM | CC(C)(C)[C@H](NCCc1ccc(-n2c(N)c(C(=O)c3ccc(F)cc3F)ccc2=O)cc1)C(=O)O [Example 54, N-[2-(4-{6-amino-5-[(2,4-difluorophenyl)carbonyl]-2-oxopyridin-1(2H)-yl}phenyl)ethyl]-3-methyl-L-valine]
25 | 100 to 1000 nM | CC(C)C[C@@H](NCCc1ccc(-n2c(N)c(C(=O)c3ccc(F)cc3F)ccc2=O)cc1)C(=O)O [Example 55, N-[2-(4-{6-amino-5-[(2,4-difluorophenyl)carbonyl]-2-oxopyridin-1(2H)-yl}phenyl)ethyl]-D-leucine]
26 | < 100 nM | CC(C)(C)OC[C@H](NCCc1ccc(-n2c(N)c(C(=O)c3ccc(F)cc3F)ccc2=O)cc1)C(=O)O [Example 56, N-[2-(4-{6-amino-5-[(2,4-difluorophenyl)carbonyl]-2-oxopyridin-1(2H)-yl}phenyl)ethyl]-O-tert-butyl-L-serine]
27 | < 100 nM | CC(C)C[C@H](NCCc1cc(F)c(-n2c(N)c(C(=O)c3ccc(F)cc3F)ccc2=O)c(F)c1)C(=O)O [Example 67, N-(2-{4-[6-amino-5-(2,4-difluorobenzoyl)-2-oxopyridin-1(2H)-yl]-3,5-difluorophenyl}ethyl)-L-leucine]
28 | < 100 nM | CC(C)C[C@@H](NCCc1cc(F)c(-n2c(N)c(C(=O)c3ccc(F)cc3F)ccc2=O)c(F)c1)C(=O)O [Example 68, N-(2-{4-[6-amino-5-(2,4-difluorobenzoyl)-2-oxopyridin-1(2H)-yl]-3,5-difluorophenyl}ethyl)-D-leucine]
29 | < 100 nM | CC(C)(C)OC[C@H](NCCc1cc(F)c(-n2c(N)c(C(=O)c3ccc(F)cc3F)ccc2=O)c(F)c1)C(=O)O [Example 69, N-(2-{4-[6-amino-5-(2,4-difluorobenzoyl)-2-oxopyridin-1(2H)-yl]-3,5-difluorophenyl}ethyl)-O-tert-butyl-L-serine]
